This is an account of results in patent publication US7605272B2, “IGF-1R inhibitor” (Kyowa Hakko Kirin Co., Ltd., priority 2005, dated 2009).

Where a name gives a salt, the structure may show the parent alone. Read-outs that look alike come from different tables or passages of the source.

The target in one assay is T1, IGF-1R (Homo sapiens, UniProt P08069).
T1 construct: purchased Upstate Co. 14-465
Briefly: IGF-1R inhibitory activity (kinase reaction, time-resolved fluoroimmunoassay). Type of assay: biochemical. Conditions: test compound 10 μmol/L. The method, boiled down:
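Compounds were tested at a single 10 μmol/L concentration. Each was incubated with recombinant IGF-1R (200 μg/L), 10 mmol/L ATP, MgCl2/MnCl2 and Na3VO4 (pH 7.5) on immobilized poly(Glu-Tyr) peptide for 30 min at 24° C. Eu-anti-phosphotyrosine time-resolved fluorescence (340/615 nm) gave relative activity against no-compound and no-enzyme wells, reported as % inhibition.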

For another assay, the system named is NCI-H929. Description: Cytostatic activity on human multiple myeloma cell line NCI-H929 (WST-1). It counts as cell-based. Conditions: for inhibition at 1 µM / inhibition at 10 µM: Homo sapiens, NCI-H929, 72 h; for inhibition at 1 µM: read-out: cytostatic rate (%) H929 (1 μmol/L); for inhibition at 10 µM: 10 μmol/L, read-out: cytostatic rate (%) H929 (10 μmol/L). The method, then:
(§1) The cytostatic rates of a test compound on human multiple myeloma cell lines NCI-H929 and KMS-11, were determined in the following manner.
(§2) For culturing NCI-H929, Roswell Park Memorial Institute's Medium (RPMI) 1640 (Gibco, Catalog No. 11875-093) containing 15% fetal bovine serum (Gibco, Catalog No. 10099-141), 1 mmol/L sodium pyruvate (Gibco, Catalog No. 11360-070), 10 mmol/L HEPES (Gibco, Catalog No. 15630-80), 4.5 g/L glucose (Sigma, Catalog No. G8769), 0.05 mmol/L 2-mercaptethanol (Nacalai Tesque, Catalog No. 21418-42) and penicillin/streptomycin (1:1) (Gibco, Catalog No. 15140-122) was used. For culturing KMS-11 cell, RPMI 1640 medium containing 10% fetal bovine serum and penicillin/streptomycin (1:1) was used. Each 80 μL of the NCI-H929 cell having a concentration of 1×10^5 cells/mL (or the KMS-11 cell having a concentration of 7.5×10^4 cells/mL) was inoculated to wells of a TC MICROWELL 96U plate (Nalge Nunc International, Catalog No. 163320) and was cultured in a 5% carbon dioxide gas incubator at 37° C. for 24 hours. Each 20 μL of a solution of the test compound in dimethyl sulfoxide (DMSO) which was prepared to make the final concentration to 1 μmol/L or 10 μmol/L, was added to each well. Each 20 μL of DMSO was added to the control well and the blank well to a final concentration of 0.1%. After adding the test compound, the cells were incubated in a 5% carbon dioxide gas incubator at 37° C. for 72 hours except for the blank well. After adding 20 μL of WST-1 reagent {4-[3-(4-iodophenyl)-2-(4-nitrophenyl)-2H-5-tetrazolio]-1,3-benzene disulfonate sodium salt} (Roche Diagnostics K.K., Catalog No. 1644807), which was diluted to 50% by RPMI medium to each well, the cells were further incubated at 37° C. for 2 hours. Then, the absorbances at 450 nm (reference wavelength: 690 nm) were measured with a microplate spectrophotometer SPECTRA max 340PC (Molecular Devices Corporation). The relative growth (%) of a well to which the test compound had been added and cultured for 72 hours was determined while setting the absorbance of a well to which not the test compound but DMSO alone had been added and cultured for 72 hours (control) as 100% and that of a well where the drugs are added (blank) as 0%. The cytostatic rate (%) of the test compound was determined by subtracting the calculated relative growth from 100.

The test system of a further assay is KMS-11. Briefly: Cytostatic activity on human multiple myeloma cell line KMS-11 (WST-1). Conditions: for inhibition at 1 µM / inhibition at 10 µM: Homo sapiens, KMS-11, 72 h; for inhibition at 1 µM: read-out: cytostatic rate (%) KMS-11 (1 μmol/L); for inhibition at 10 µM: 10 μmol/L, read-out: cytostatic rate (%) KMS-11 (10 μmol/L). It counts as cell-based. The protocol: as §1, §2
On the technique in general: Formazan colour is commonly taken as a measure of viable cells.

Setting [1] is: IGF-1R active recombinant enzyme.
Where [2] appears, read: NCI-H929 cells, test compound 1 μmol/L, WST-1.
Setting [3] is: KMS-11 cells, test compound 1 μmol/L, WST-1.

T1 sequence (P08069 959-1367 limits assumed): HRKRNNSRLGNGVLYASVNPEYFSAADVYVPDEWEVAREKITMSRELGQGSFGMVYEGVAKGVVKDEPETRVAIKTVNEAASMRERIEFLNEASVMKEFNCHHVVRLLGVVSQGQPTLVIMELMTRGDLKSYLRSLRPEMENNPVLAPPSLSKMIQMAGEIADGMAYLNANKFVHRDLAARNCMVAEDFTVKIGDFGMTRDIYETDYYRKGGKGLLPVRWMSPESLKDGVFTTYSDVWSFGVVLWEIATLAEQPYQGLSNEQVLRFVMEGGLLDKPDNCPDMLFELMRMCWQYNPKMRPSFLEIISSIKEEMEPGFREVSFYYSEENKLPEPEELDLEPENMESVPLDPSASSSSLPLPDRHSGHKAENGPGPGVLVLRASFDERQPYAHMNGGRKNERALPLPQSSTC

On to `Cc1ccsc1C(=O)Nc1cc(CN2CCC(CCC(C)(C)O)CC2)ccc1/C=C/c1n[nH]c2ccccc12` [Compound 322, (E)-N-{5-[4-(3-hydroxy-3-methylbutyl)piperidin-1-ylmethyl]-2-[2-(1H-indazol-3-yl)vinyl]phenyl}-3-methylthiophene-2-carboxamide], for which the inhibition at 10 µM at IGF-1R (setting [1]) was found to be 99.1%. The results for the inhibition at 1 µM in the assay with NCI-H929 (setting [2]) and in the assay with KMS-11 (setting [3]) were 122% and 106%, respectively.

For `CCCS(=O)(=O)NCCOc1ccc(/C=C/c2n[nH]c3ccccc23)c(NC(=O)c2sccc2C)c1OC` [Compound 338, (E)-N-{6-[2-(1H-indazol-3-yl)vinyl]-2-methoxy-3-[2-(propylsulfonylamino)ethoxy]phenyl}-3-methylthiophene-2-carboxamide], the inhibition at 10 µM on IGF-1R (setting [1]) is 99%. The figures for the inhibition at 1 µM in the assay on NCI-H929 (setting [2]) and in the assay on KMS-11 (setting [3]) were 120% and 122%, respectively.

As to `Cc1ccsc1C(=O)Nc1cc(CN2CCNC[C@H]2C)ccc1/C=C/c1n[nH]c2ccccc12` [Compound 331, (R)-(E)-N-{2-[2-(1H-indazol-3-yl)vinyl]-5-(2-methylpiperazin-1-ylmethyl)phenyl}-3-methylthiophene-2-carboxamide], the inhibition at 10 µM at IGF-1R (setting [1]) worked out at 103%. The values for the inhibition at 1 µM in the assay on NCI-H929 (setting [2]) and in the assay with KMS-11 (setting [3]) were 116% and 102%, respectively.

As to `O=C(Nc1ccccc1/C=C/c1n[nH]c2ccccc12)c1ccc([N+](=O)[O-])o1` [Compound 63, (E)-N-{2-[2-(1H-indazol-3-yl)vinyl]phenyl}-5-nitrofuran-2-carboxamide], the inhibition at 10 µM on IGF-1R (setting [1]) was 99.2%; in the assay with NCI-H929 (72 hours), 109%; in the assay with KMS-11 (72 hours) it was 125%.

For `COCCN(CCN1CCOCC1)c1ccc(/C=C/c2n[nH]c3ccccc23)c(NC(=O)c2sccc2C)c1` [Compound 267, (E)-N-{2-[2-(1H-indazol-3-yl)vinyl]-5-[N-(2-methoxyethyl)-2-(morpholinoethyl)amino]phenyl}-3-methylthiophene-2-carboxamide], the “inhibitory activity (%) at 10 μmol/L” value on IGF-1R (setting [1]) was found to be 100.3%. In addition, in the assay on NCI-H929 (1 μmol/L, 72 hours), the “cytostatic rate (%) H929 (1 μmol/L)” value was determined as 118.1%. Further, the “cytostatic rate (%) KMS-11 (1 μmol/L)” value in the assay on KMS-11 (1 μmol/L, 72 hours) turned out to be 133.8%.

For `COc1ccc(/C=C/c2n[nH]c3ccccc23)c(NC(=O)c2sccc2C)c1OC` [Compound 261, (E)-N-{6-[2-(1H-indazol-3-yl)vinyl]-2,3-dimethoxyphenyl}-3-methylthiophene-2-carboxamide], at IGF-1R (setting [1]), the inhibition at 10 µM amounted to 101%. The inhibition at 1 µM with NCI-H929 (1 μmol/L, 72 hours) is 115%; with KMS-11 (1 μmol/L, 72 hours), 121%.

As for `COCCOc1ccc(C(=O)Nc2ccccc2/C=C/c2n[nH]c3ccccc23)cc1` [Compound 78, (E)-N-{2-[2-(1H-indazol-3-yl)vinyl]phenyl}-4-(2-methoxyethoxy)benzamide], the inhibition at 10 µM on IGF-1R (setting [1]) was 100%; in the assay on NCI-H929 (72 hours), 114%; in the assay on KMS-11 (72 hours), 107%.

As to `COC1CCN(C(=O)c2ccc(/C=C/c3n[nH]c4ccccc34)c(N3C(=O)c4cccc(N)c4C3=O)c2)CC1` [Compound 325], the “inhibitory activity (%) at 10 μmol/L” value on IGF-1R (setting [1]) is listed as 100.2%. Besides, the “cytostatic rate (%) H929 (1 μmol/L)” value in the assay on NCI-H929 (setting [2]) came out at 118.4%. In the assay on KMS-11 (setting [3]), the “cytostatic rate (%) KMS-11 (1 μmol/L)” value is reported as 100.1%.

For the compound `COc1cc(/C=C/c2n[nH]c3ccccc23)c(NC(=O)c2cccn2C)cc1OC` [Compound 96, (E)-N-{2-[2-(1H-indazol-3-yl)vinyl]-4,5-dimethoxyphenyl}-1-methyl-1H-pyrrole-2-carboxamide], the inhibition at 10 µM was found to be 100% against IGF-1R, 117% with NCI-H929 (72 hours) and 117% in the assay with KMS-11 (72 hours).

Take `COc1c(OCCN2CCOCC2)ccc(/C=C/c2n[nH]c3ccccc23)c1NC(=O)c1sccc1C` [Compound 266, (E)-N-{6-[2-(1H-indazol-3-yl)vinyl]-2-methoxy-3-(2-morpholinoethoxy)phenyl}-3-methylthiophene-2-carboxamide]: the inhibition at 10 µM at IGF-1R (setting [1]) worked out at 103%. Moreover, the inhibition at 1 µM in the assay with NCI-H929 (1 μmol/L, 72 hours) worked out at 118%; in the assay with KMS-11 (1 μmol/L, 72 hours), 131%.

In the case of `O=C(NCc1cccs1)c1ccccc1/C=C/c1n[nH]c2ccccc12` [Compound 141, (E)-2-[2-(1H-indazol-3-yl)vinyl]-N-(thiophen-2-ylmethyl)benzamide], the figures for the inhibition at 10 µM on IGF-1R (setting [1]), with NCI-H929 (72 hours) and in the assay with KMS-11 (72 hours) were 97.1%, 114% and 117%, respectively.

Regarding `COCCCN(CCO)C(=O)c1ccc(/C=C/c2n[nH]c3ccccc23)c(NC(=O)c2sccc2C)c1` [Compound 256, (E)-N-{5-[N-(2-hydroxyethyl)-N-(3-methoxypropyl)carbamoyl]-2-[2-(1H-indazol-3-yl)vinyl]phenyl}-3-methylthiophene-2-carboxamide], the inhibition at 10 µM on IGF-1R (setting [1]) was determined as 100%. In addition, the inhibition at 1 µM in the assay with NCI-H929 (1 μmol/L, 72 hours) stood at 122%; in the assay on KMS-11 (1 μmol/L, 72 hours), 105%.

With `COc1c(OCCN2CCCC2=O)ccc(/C=C/c2n[nH]c3ccccc23)c1NC(=O)c1sccc1C` [Compound 337, (E)-N-{6-[2-(1H-indazol-3-yl)vinyl]-2-methoxy-3-[2-(2-oxopyrrolidin-1-yl)ethoxy]phenyl}-3-methylthiophene-2-carboxamide], the inhibition at 10 µM on IGF-1R (setting [1]) came to 97.4%. The inhibition at 1 µM with NCI-H929 (setting [2]) was 120%; in the assay on KMS-11 (setting [3]), 121%.

As to `Cn1cc(N)cc1C(=O)Nc1ccccc1/C=C/c1n[nH]c2ccccc12` [Compound 76, (E)-4-amino-N-{2-[2-(1H-indazol-3-yl)vinyl]phenyl}-1-methyl-1H-pyrrole-2-carboxamide trifluoroacetate], the inhibition at 10 µM at IGF-1R (setting [1]) was found to be 99.2%; in the assay on NCI-H929 (72 hours), 109%; in the assay with KMS-11 (72 hours), 126%.

For `COCCCN1CCN(C(=O)c2ccc(/C=C/c3n[nH]c4ccccc34)c(N3C(=O)c4cccc(N)c4C3=O)c2)CC1` [Compound 309, (E)-4-amino-2-{2-[2-(1H-indazol-3-yl)vinyl]-5-[4-(3-methoxypropyl)piperazin-1-ylcarbonyl]phenyl}isoindole-1,3-dione], at IGF-1R (setting [1]), the inhibition at 10 µM worked out at 97.1%. Further, the inhibition at 1 µM came out at 115% with NCI-H929 (setting [2]) and 113% with KMS-11 (setting [3]).

In the case of `Nc1cccc2c1C(=O)N(c1ccc(F)cc1/C=C/c1n[nH]c3ccccc13)C2=O` [Compound 254, (E)-4-amino-2-{4-fluoro-2-[2-(1H-indazol-3-yl)vinyl]phenyl}isoindole-1,3-dione], the inhibition at 10 µM on IGF-1R (setting [1]) is 99.5%. For the same compound, the inhibition at 1 µM with NCI-H929 (1 μmol/L, 72 hours) turned out to be 116%; with KMS-11 (1 μmol/L, 72 hours), 81.2%.

As to `Cc1ccsc1C(=O)Nc1cc(CN2CCN(S(C)(=O)=O)CC2)ccc1/C=C/c1n[nH]c2ccccc12` [Compound 232, (E)-N-{2-[2-(1H-indazol-3-yl)vinyl]-5-(4-methanesulfonylpiperazin-1-ylmethyl)phenyl}-3-methylthiophene-2-carboxamide], the inhibition at 10 µM at IGF-1R (setting [1]) was 101%. In addition, the inhibition at 1 µM in the assay on NCI-H929 (1 μmol/L, 72 hours) was 124%; in the assay with KMS-11 (1 μmol/L, 72 hours), 116%.

Turning to `Nc1cccc2c1C(=O)N(c1cc(CN3CCN(CCO)CC3)ccc1/C=C/c1n[nH]c3ccccc13)C2=O` [Compound 307, (E)-4-amino-2-{5-[4-(2-hydroxyethyl)piperazin-1-ylmethyl]-2-[2-(1H-indazol-3-yl)vinyl]phenyl}isoindole-1,3-dione], the inhibition at 10 µM on IGF-1R (setting [1]) amounted to 100%. Moreover, the inhibition at 1 µM was 114% in the assay on NCI-H929 (setting [2]) and 110% with KMS-11 (setting [3]).
